Source: PubChem BioAssay (NCI)
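96-well plates; 48 h exposure; 5 concentrations. Endpoints by linear interpolation between flanking doses. Not reached: highest tested concentration assigned. GI50: concentration for 50% inhibition of growth. At the TGI there is no net growth.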

What was measured:
Assay in all cases: growth of human tumour cells (NCI), 48 h
COLO 205 colon = system: COLO 205 colon
HS 578T breast = system: HS 578T breast
MDA-MB-435 = system: MDA-MB-435
SK-OV-3 ovarian = system: SK-OV-3 ovarian
NCI/ADR-RES ovarian = system: NCI/ADR-RES ovarian
UACC-62 melanoma = system: UACC-62 melanoma
OVCAR-3 ovarian = system: OVCAR-3 ovarian
UACC-257 melanoma = system: UACC-257 melanoma
CAKI-1 renal = system: CAKI-1 renal
MCF7 breast = system: MCF7 breast
DU-145 prostate = system: DU-145 prostate
OVCAR-8 ovarian = system: OVCAR-8 ovarian
A549 NSCLC = system: A549 NSCLC
SF-539 CNS = system: SF-539 CNS
UO-31 renal = system: UO-31 renal
IGROV1 ovarian = system: IGROV1 ovarian
U251 CNS = system: U251 CNS
786-0 renal = system: 786-0 renal
SN12C renal = system: SN12C renal
HCT-116 colon = system: HCT-116 colon
MDA-MB-468 breast = system: MDA-MB-468 breast
T-47D breast = system: T-47D breast
MDA-MB-231 breast = system: MDA-MB-231 breast
EKVX NSCLC = system: EKVX NSCLC
MOLT-4 leukemia = system: MOLT-4 leukemia
NCI-H522 lung = system: NCI-H522 lung
NCI-H23 lung = system: NCI-H23 lung
A498 renal = system: A498 renal
BT-549 breast = system: BT-549 breast
TK-10 renal = system: TK-10 renal
CCRF-CEM leukemia = system: CCRF-CEM leukemia
M14 melanoma = system: M14 melanoma
RXF 393 renal = system: RXF 393 renal
SF-295 CNS = system: SF-295 CNS
NCI-H226 lung = system: NCI-H226 lung
HOP-92 NSCLC = system: HOP-92 NSCLC
SK-MEL-2 melanoma = system: SK-MEL-2 melanoma
HCC-2998 colon = system: HCC-2998 colon
KM12 colon = system: KM12 colon
SK-MEL-5 melanoma = system: SK-MEL-5 melanoma
SNB-19 CNS = system: SNB-19 CNS
SF-268 CNS = system: SF-268 CNS
HOP-62 NSCLC = system: HOP-62 NSCLC
ACHN renal = system: ACHN renal
HCT-15 colon = system: HCT-15 colon
NCI-H460 lung = system: NCI-H460 lung
OVCAR-4 ovarian = system: OVCAR-4 ovarian
SK-MEL-28 melanoma = system: SK-MEL-28 melanoma
SNB-75 CNS = system: SNB-75 CNS
RPMI-8226 leukemia = system: RPMI-8226 leukemia
HT29 colon = system: HT29 colon
HL-60(TB) leukemia = system: HL-60(TB) leukemia
LOX IMVI melanoma = system: LOX IMVI melanoma
SR leukemia = system: SR leukemia
MALME-3M melanoma = system: MALME-3M melanoma
K-562 leukemia = system: K-562 leukemia
OVCAR-5 ovarian = system: OVCAR-5 ovarian
PC-3 prostate = system: PC-3 prostate
SW-620 colon = system: SW-620 colon

CCCCCc1ccc(S(=O)(=O)N(C(C)=O)c2cc(-c3csc(N(C)C(C)=O)n3)ccc2N2CCN(C)CC2)cc1 gave a GI50 (COLO 205 colon) of 6.54 µM, a TGI (COLO 205 colon) of 15.5 µM and a GI50 (HS 578T breast) of 8.77 µM. The TGI (HS 578T breast) was 25.6 µM, the GI50 (MDA-MB-435) was 2.97 µM and the TGI (MDA-MB-435) was 11.4 µM. The GI50 (SK-OV-3 ovarian) was 9.9 µM, the TGI (SK-OV-3 ovarian) was 18.1 µM and the GI50 (NCI/ADR-RES ovarian) was 8.01 µM. The TGI (NCI/ADR-RES ovarian) was 17.3 µM, the GI50 (UACC-62 melanoma) was 9.44 µM and the TGI (UACC-62 melanoma) was 17.4 µM. For the same compound, the GI50 (OVCAR-3 ovarian) was 6.4 µM, the TGI (OVCAR-3 ovarian) was 15.1 µM and the GI50 (UACC-257 melanoma) was 7.51 µM. For the same compound, the TGI (UACC-257 melanoma) was 15.5 µM, the GI50 (CAKI-1 renal) was 6.19 µM and the TGI (CAKI-1 renal) was 13.6 µM. It also gave a GI50 (MCF7 breast) of 2.22 µM, a TGI (MCF7 breast) of 8.7 µM and a GI50 (DU-145 prostate) of 7.52 µM. It also gave a TGI (DU-145 prostate) of 15.4 µM, a GI50 (OVCAR-8 ovarian) of 9.42 µM and a TGI (OVCAR-8 ovarian) of 19.5 µM. For the same compound, the GI50 (A549 NSCLC) was 6.37 µM, the TGI (A549 NSCLC) was 13.8 µM and the GI50 (SF-539 CNS) was 7.18 µM. It also gave a TGI (SF-539 CNS) of 14.5 µM, a GI50 (UO-31 renal) of 7.22 µM and a TGI (UO-31 renal) of 14.6 µM. It also gave a GI50 (IGROV1 ovarian) of 9.04 µM, a TGI (IGROV1 ovarian) of 16.9 µM and a GI50 (U251 CNS) of 7.12 µM. For the same compound, the TGI (U251 CNS) was 14.7 µM, the GI50 (786-0 renal) was 4.46 µM and the TGI (786-0 renal) was 13.5 µM. For the same compound, the GI50 (SN12C renal) was 7.7 µM, the TGI (SN12C renal) was 16.2 µM and the GI50 (HCT-116 colon) was 2.17 µM. The TGI (HCT-116 colon) was 8.36 µM, the GI50 (MDA-MB-468 breast) was 2.99 µM and the TGI (MDA-MB-468 breast) was 11.9 µM. It also gave a GI50 (T-47D breast) of 7.66 µM, a TGI (T-47D breast) of 18 µM and a GI50 (MDA-MB-231 breast) of 4.01 µM. For the same compound, the TGI (MDA-MB-231 breast) was 11.8 µM, the GI50 (EKVX NSCLC) was 7.7 µM and the TGI (EKVX NSCLC) was 15.8 µM. The GI50 (MOLT-4 leukemia) was 2.31 µM, the TGI (MOLT-4 leukemia) was 11.1 µM and the GI50 (NCI-H522 lung) was 8.69 µM. It also gave a TGI (NCI-H522 lung) of 17.3 µM, a GI50 (NCI-H23 lung) of 8.92 µM and a TGI (NCI-H23 lung) of 17.3 µM. The GI50 (A498 renal) was 8.43 µM, the TGI (A498 renal) was 16.2 µM and the GI50 (BT-549 breast) was 8.89 µM. For the same compound, the TGI (BT-549 breast) was 17.9 µM, the GI50 (TK-10 renal) was 9.62 µM and the TGI (TK-10 renal) was 17.9 µM. For the same compound, the GI50 (CCRF-CEM leukemia) was 3.63 µM, the TGI (CCRF-CEM leukemia) was 13.7 µM and the GI50 (M14 melanoma) was 3.25 µM. It also gave a TGI (M14 melanoma) of 12.2 µM, a GI50 (RXF 393 renal) of 3.99 µM and a TGI (RXF 393 renal) of 13.3 µM. For the same compound, the GI50 (SF-295 CNS) was 2.56 µM, the TGI (SF-295 CNS) was 10.2 µM and the GI50 (NCI-H226 lung) was 10.6 µM. The TGI (NCI-H226 lung) was 24.1 µM, the GI50 (HOP-92 NSCLC) was 5.97 µM and the TGI (HOP-92 NSCLC) was 16 µM. The GI50 (SK-MEL-2 melanoma) was 10.2 µM, the TGI (SK-MEL-2 melanoma) was 19 µM and the GI50 (HCC-2998 colon) was 6 µM. It also gave a TGI (HCC-2998 colon) of 13.2 µM, a GI50 (KM12 colon) of 7.83 µM and a TGI (KM12 colon) of 17.2 µM. For the same compound, the GI50 (SK-MEL-5 melanoma) was 7.04 µM, the TGI (SK-MEL-5 melanoma) was 14.4 µM and the GI50 (SNB-19 CNS) was 8.81 µM. For the same compound, the TGI (SNB-19 CNS) was 16.6 µM, the GI50 (SF-268 CNS) was 7.35 µM and the TGI (SF-268 CNS) was 18 µM. The GI50 (HOP-62 NSCLC) was 8.71 µM, the TGI (HOP-62 NSCLC) was 17 µM and the GI50 (ACHN renal) was 8.86 µM. For the same compound, the TGI (ACHN renal) was 16.7 µM, the GI50 (HCT-15 colon) was 2.13 µM and the TGI (HCT-15 colon) was 8.02 µM. It also gave a GI50 (NCI-H460 lung) of 1.7 µM, a TGI (NCI-H460 lung) of 6.22 µM and a GI50 (OVCAR-4 ovarian) of 9.87 µM. For the same compound, the TGI (OVCAR-4 ovarian) was 23.6 µM, the GI50 (SK-MEL-28 melanoma) was 7.98 µM and the TGI (SK-MEL-28 melanoma) was 15.6 µM. For the same compound, the GI50 (SNB-75 CNS) was 6.47 µM, the TGI (SNB-75 CNS) was 14.2 µM and the GI50 (RPMI-8226 leukemia) was 4.61 µM. For the same compound, the TGI (RPMI-8226 leukemia) was 19.1 µM, the GI50 (HT29 colon) was 2.11 µM and the TGI (HT29 colon) was 7.89 µM. It also gave a GI50 (HL-60(TB) leukemia) of 1.57 µM, a TGI (HL-60(TB) leukemia) of 6.24 µM and a GI50 (LOX IMVI melanoma) of 1.01 µM. It also gave a TGI (LOX IMVI melanoma) of 1.9 µM, a GI50 (SR leukemia) of 1.23 µM and a TGI (SR leukemia) of 4.07 µM. It also gave a GI50 (MALME-3M melanoma) of 7.61 µM, a TGI (MALME-3M melanoma) of 15.3 µM and a GI50 (K-562 leukemia) of 1.53 µM. For the same compound, the TGI (K-562 leukemia) was 59.3 µM, the GI50 (OVCAR-5 ovarian) was 8.44 µM and the TGI (OVCAR-5 ovarian) was 16.2 µM. The GI50 (PC-3 prostate) was 6.48 µM, the TGI (PC-3 prostate) was 16.3 µM and the GI50 (SW-620 colon) was 1.51 µM. It also gave a TGI (SW-620 colon) of 5.99 µM.
